Test results as given in patent US20160159814A1, “GLYCINE TRANSPORTER INHIBITOR” (TAISHO PHARMACEUTICAL CO., LTD., priority 2013, published 2016).
Read-outs that look alike come from different tables or passages of the source.

Biological target: T1, human type 1 glycine transporter (GlyT1) (Homo sapiens, UniProt P48067)
T1 construct: T98G cells (glioma cells) expressing human type 1 glycine transporter (GlyT1) were used; endogenous in cells; host or cells: T98G cells (human glioma cells)
T1 sequence (P48067 1-706): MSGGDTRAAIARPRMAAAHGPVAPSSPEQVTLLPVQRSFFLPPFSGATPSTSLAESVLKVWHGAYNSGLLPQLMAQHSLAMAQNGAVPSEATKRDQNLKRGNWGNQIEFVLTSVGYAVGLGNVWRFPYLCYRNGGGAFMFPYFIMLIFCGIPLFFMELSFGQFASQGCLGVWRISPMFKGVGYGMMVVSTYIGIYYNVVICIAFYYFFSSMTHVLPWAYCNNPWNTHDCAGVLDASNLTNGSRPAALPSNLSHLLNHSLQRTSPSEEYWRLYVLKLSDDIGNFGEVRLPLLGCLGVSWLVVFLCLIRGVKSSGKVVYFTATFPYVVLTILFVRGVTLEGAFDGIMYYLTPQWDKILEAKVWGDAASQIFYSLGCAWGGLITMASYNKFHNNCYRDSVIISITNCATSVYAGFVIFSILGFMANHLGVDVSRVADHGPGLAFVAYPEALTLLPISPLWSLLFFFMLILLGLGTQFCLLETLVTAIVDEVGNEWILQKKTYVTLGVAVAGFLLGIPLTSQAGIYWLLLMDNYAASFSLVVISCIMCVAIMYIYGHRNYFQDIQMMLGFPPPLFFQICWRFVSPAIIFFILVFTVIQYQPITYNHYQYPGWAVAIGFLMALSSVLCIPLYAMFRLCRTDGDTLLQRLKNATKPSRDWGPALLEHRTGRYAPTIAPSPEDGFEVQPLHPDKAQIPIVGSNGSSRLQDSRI
Test: Glycine uptake inhibition experiment ([3H] glycine uptake in T98G cells expressing GlyT1)
Format: cell-based
Summary of the method: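 T98G glioma cells expressing human GlyT1 were pretreated 10 min with compound in HEPES buffer pH 7.4 (0.2% BSA), then incubated with compound plus 250 nM final [3H]glycine for 15 min at room temperature. Intracellular radioactivity was counted after NaOH lysis; 10 μM ALX5407 defined non-specific uptake. IC50 came from 10^−9–10^−5 M curves.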

[1] = table section whose head prints (μm)

Compound	IC50	IC50 [1]
C[C@H](O)c1cccc2c1C(F)(F)C(=O)N2Cc1ccc(C(F)(F)F)nc1Cl [Compound 239, 1-{[2-chloro-6-(trifluoromethyl)pyridin-3-yl]methyl}-3,3-difluoro-4-[(1S)-1-hydroxyethyl]-1,3-dihydro-2H-indol-2-one]	0.22 µM	–
CCOc1ccc(CN2C(=O)C(F)(F)c3c([C@H](C)O)cccc32)cn1 [Compound 241, 1-[(6-ethoxypyridin-3-yl)methyl]-3,3-difluoro-4-[(1S)-1-hydroxyethyl]-1,3-dihydro-2H-indol-2-one]	0.066 µM	–
COc1nc(C(F)(F)F)ccc1CN1C(=O)C(F)(F)c2c([C@H](C)O)cccc21 [Compound 243, 3,3-difluoro-4-[(1S)-1-hydroxyethyl]-1-({2-methoxy-6-(trifluoromethyl)pyridin-3-yl]methyl}-1,3-dihydro-2H-indol-2-one]	0.057 µM	–
C[C@H](O)c1cccc2c1C(F)(F)C(=O)N2Cc1cc(OC(F)F)ccn1 [Compound 245, 1-{[4-(difluoromethoxy)pyridin-2-yl]methyl}-3,3-difluoro-4-[(1S)-1-hydroxyethyl]-1,3-dihydro-2H-indol-2-one]	0.11 µM	–
COc1nc(CN2C(=O)C(F)(F)c3c([C@H](C)O)cccc32)ccc1F [Compound 246, 3,3-difluoro-1-[(5-fluoro-6-methoxypyridin-2-yl)methyl]-4-[(1S)-1-hydroxyethyl]-1,3-dihydro-2H-indol-2-one]	0.055 µM	–
COc1nc(CN2C(=O)C(F)(F)c3c([C@H](C)O)cccc32)ccc1Cl [Compound 249, 1-[(5-chloro-6-methoxypyridin-2-yl)methyl]-3,3-difluoro-4-[(1S)-1-hydroxyethyl]-1,3-dihydro-2H-indol-2-one]	0.058 µM	–
O=C1N(Cc2cncc(Cl)c2)c2c(F)ccc(C(O)C(F)F)c2C1(F)F (centres unmarked) [Compound 252, 1-[(5-chloropyridin-3-yl)methyl]-4-(2,2-difluoro-1-hydroxyethyl)-3,3,7-trifluoro-1,3-dihydro-2H-indol-2-one]	0.046 µM	–
C[C@H](O)c1ccc(F)c2c1C(F)(F)C(=O)N2Cc1ccnc(C#N)c1 [Compound 277, 4-({3,3,7-trifluoro-4-[(1S)-1-hydroxyethyl]-2-oxo-2,3-dihydro-1H-indol-1-yl}methyl)pyridine-2-carbonitrile]	0.014 µM	–

Results, then the compound that gave them:

IC50	IC50 [1]	Compound
0.06 µM	–	COc1cc(CN2C(=O)C(F)(F)c3c([C@H](C)O)cccc32)cnc1F [Compound 240, 3,3-difluoro-1-[(6-fluoro-6-methoxypyridin-3-yl)methyl]-4-[(1S)-1-hydroxyethyl]-1,3-dihydro-2H-indol-2-one]
0.083 µM	–	C[C@H](O)c1cccc2c1C(F)(F)C(=O)N2Cc1ncc(Cl)cc1C#N [Compound 242]
0.0097 µM	–	C[C@H](O)c1cccc2c1C(F)(F)C(=O)N2Cc1ccc(Cl)c(Cl)n1 [Compound 244, 1-[(5,6-dichloropyridin-2-yl)methyl]-3,3-difluoro-4-[(1S)-1-hydroxyethyl]-1,3-dihydro-2H-indol-2-one]
0.58 µM	–	COc1cccnc1CN1C(=O)C(F)(F)c2c([C@H](C)O)cccc21 [Compound 247, 3,3-difluoro-4-[(1S)-1-hydroxyethyl]-1-[(3-methoxypyridin-2-yl)methyl]-1,3-dihydro-2H-indol-2-one]
1.2 µM	–	C[C@H](O)c1cccc2c1C(F)(F)C(=O)N2Cc1ccc(Cl)nc1C#N [Compound 248, 6-chloro-3-({3,3-difluoro-4-[(1S)-1-hydroxyethyl]-2-oxo-2,3-dihydro-1H-indol-1-yl}methyl)pyridine-2-carbonitrile]
0.0098 µM	–	C[C@H](O)c1cccc2c1C(F)(F)C(=O)N2Cc1cc(Cl)c(F)cn1 [Compound 250]
0.02 µM	–	C[C@H](O)c1cccc2c1C(F)(F)C(=O)N2Cc1cnc(Cl)c(C#N)c1 [Compound 251, 2-chloro-5-({3,3-difluoro-4-[(1S)-1-hydroxyethyl]-2-oxo-2,3-dihydro-1H-indol-1-yl)methyl)pyridine-3-carbonitrile]
–	0.25 µM	COc1cc(CN2C(=O)C(F)(F)c3c([C@H](C)O)cccc32)ncc1F [Compound 261, 3,3-difluoro-1-[(5-fluoro-4-methoxypyridin-2-yl)methyl)-[(1S)-1-hydroxyethyl]-1,3-dihydro-2H-indol-2-one]
–	0.062 µM	C[C@H](O)c1cccc2c1C(F)(F)C(=O)N2Cc1cc(C#N)c(F)cn1 [Compound 262, 2-{(3,3-difluoro-4-[(1S)-1-hydroxyethyl]-2-oxo-2,3-dihydro-1H-indol-1-yl}methyl)-5-fluoropyridine-4-carbonitrile]
